Reference: patent EP0745083B1, “2-HETEROARYL-5,11-DIHYDRO-6H-DIPYRIDO [3,2-b:2',3'-e][1,4]DIAZEPINES AND THEIR USE IN THE PREVENTION OR TREATMENT OF HIV INFECTION” (BOEHRINGER INGELHEIM PHARMACEUTICALS INC., priority 1994, dated 1995)

Experiments:
[1] = molecular target: T1, HIV-1 RT wild type (WT) enzyme (Human immunodeficiency virus type 1 group M subtype B, UniProt P03367); assay: Reverse Transcriptase (RT) Assay, wild type enzyme (RNA-dependent DNA polymerase activity); type: biochemical, Human Immunodeficiency Virus (HIV-1); conditions: 1 µM compound; for inhibition at 1 µM: read-out: Reverse Transciptase Assay % inhibition (1 µM) WT
T1 construct: Reverse transcriptase enzyme from the LAV strain of Human Immunodeficiency Virus (HIV-1) (1) was isolated from the bacterial strain JM109; made in house; host or cells: E. coli JM109 (clone pBRTprt1+ in vector pIBI21, lac promoter)
Text: Utilizing the Reverse Transcriptase (RT) Assay described below, compounds can be tested for their ability to inhibit the RNA-dependent DNA polymerase activity of HIV-1 RT. Certain specific compounds described in the Examples which appear below, were so tested.
(§1) Among the enzymes for which Human Immunodeficiency Virus (HIV-1) encodes is a reverse transcriptase (1), so-named because it transcribes a DNA copy from an RNA template. This activity can be quantitatively measured in a cell-free enzyme assay, which has been previously described (2), and is based upon the observation that reverse transcriptase is able to use a synthetic template [poly r(C) primed with oligo d(G)] to transcribe a radio-labelled, acid-precipitable DNA strand utilizing ^3H-dGTP as a substrate. The assay described below utilizes the wild type (WT) enzyme, which is the predominant form of the enzyme observed in patients infected with HIV-1. Utilization of mutant RT eraymes (Y181C and Y181L, prepared by site-directed mutagenesis in which the tyrosine residue at codon 181 has been replaced by a cysteine or a leucine residue, respectively) and analogous assay conditions allows compounds to be evaluated for their effectiveness at inhibiting these mutant enzymes.
Reverse transcriptase enzyme from the LAV strain of Human Immunodeficiency Virus (HIV-1) (1) was isolated from the bacterial strain JM109 (3) expressing the DNA clone pBRTprt1+ (2) which is under the control of the lac promotor in the expression vector pIBI21 (4). An overnight culture grown in 2XYT medium (37°C, 225 rpm) (5) supplemented with 100 µg/mL ampicillin for positive selection is inoculated at a 1:40 dilution into M9 medium supplemented with 10µg/mL thiamine, 0.5% casamino acids, and 50 µg/mL ampicillin (5). The culture is incubated (37°C, 225 rpm) until it reaches an OD540 of 0.3-0.4. At that time the repressor inhibitor IPTG (isopropyl β-D-thiogalactopyranoside) is added to 0.5mM, and the mixture is incubated for 2 additional hours. Bacteria are pelleted, resuspended in a 50mM Tris, 0.6mM EDTA, 0.375M NaCl buffer and digested by the addition of lysozyme (1mg/mL) for 30 minutes on ice. The cells are lysed by the addition of 0.2% NP-40 and brought to 1M NaCl.
After removal of the insoluble debris by centrifugation, the protein is precipitated by the addition of 3 volumes of saturated aqueous ammonium sulfate. The enzyme is pelleted, resuspended in RT buffer (50mM Tris pH 7.5, 1mM EDTA, 5mM DTT, 0.1% NP-40, 0.1M NaCI, and 50% glycerol), and stored at -70°C for further use.
The 2X concentrated stock reaction mixture is aliquoted and stored at -20°C. The mixture is stable and thawed for use in each assay. This enzyme assay has been adapted to a 96 well microtiter plate system, and has been previously described (6). Tris buffer (50 mM, pH 7.4), vehicle (solvent diluted to match the compound dilution), or compounds in vehicle are dispensed into 96-well microtiter plates (10µL/well; 3 wells/ compound). The HIV-1 RT enzyme is thawed, diluted in 50mM Tris pH 7.4 so that fifteen µL of diluted enzyme contain 0.001 Unit (one unit is that amount of enzyme to transform 1 micromole of substrate per minute at 25°C), and fifteen µL are dispensed per well. Twenty µL of 0.12-0.5M EDTA are added to the first three wells of the microtiter plate. EDTA chelates the Mg^++ present and prevents reverse transcription. This group serves as background polymerization which is subtracted from all other groups. Twenty-five ul of the 2X reaction mixture are added to all wells and the assay is allowed to incubate at room temperature for 60 minutes. The assay is terminated by precipitating the DNA in each well with 50µL of 10% trichloracetic acid (TCA) (10% w/v) in sodium pyrophosphate (1% w/v). The microtiter plate is incubated for 15 minutes at 4°C and the precipitate is fixed onto #30 glass fiber paper (Schleicher & Schuell) using a Skatron semi-automatic harvester. […]

HIV-1 RT Y181C = molecular target: T2, HIV-1 RT Y181C (Human immunodeficiency virus type 1 group M subtype B, UniProt P03367, Y780C); assay: Reverse Transcriptase (RT) Assay, Y181C mutant enzyme; type: biochemical, Human Immunodeficiency Virus (HIV-1); conditions: 1 µM compound; for inhibition at 1 µM: read-out: Reverse Transciptase Assay % inhibition (1 µM) Y181C
T2 construct: Utilization of mutant RT eraymes (Y181C and Y181L, prepared by site-directed mutagenesis); made in house
Text: as §1
The 2X concentrated stock reaction mixture is aliquoted and stored at -20°C. The mixture is stable and thawed for use in each assay. This enzyme assay has been adapted to a 96 well microtiter plate system, and has been previously described (6). Tris buffer (50 mM, pH 7.4), vehicle (solvent diluted to match the compound dilution), or compounds in vehicle are dispensed into 96-well microtiter plates (10µL/well; 3 wells/ compound). The HIV-1 RT enzyme is thawed, diluted in 50mM Tris pH 7.4 so that fifteen µL of diluted enzyme contain 0.001 Unit (one unit is that amount of enzyme to transform 1 micromole of substrate per minute at 25°C), and fifteen µL are dispensed per well. Twenty µL of 0.12-0.5M EDTA are added to the first three wells of the microtiter plate. EDTA chelates the Mg^++ present and prevents reverse transcription. This group serves as background polymerization which is subtracted from all other groups. Twenty-five ul of the 2X reaction mixture are added to all wells and the assay is allowed to incubate at room temperature for 60 minutes. The assay is terminated by precipitating the DNA in each well with 50µL of 10% trichloracetic acid (TCA) (10% w/v) in sodium pyrophosphate (1% w/v). The microtiter plate is incubated for 15 minutes at 4°C and the precipitate is fixed onto #30 glass fiber paper (Schleicher & Schuell) using a Skatron semi-automatic harvester. The filters are then washed with additional TCA (5%) containing sodium pyrophosphate (1%), rinsed with aqueous ethanol (70%), dried, and transferred to scintillation vials (6). Each vial receives 2 mL of scintillation cocktail and is counted in a Beckman beta counter. The calculation for percent inhibition is as follows: % inhibition =(CPM Mean Test Value - CPM Mean Control Value X100)/(CPM Mean Control Value) [formula]

HIV-1 RT Y188L = molecular target: T3, HIV-1 RT Y188L (Human immunodeficiency virus type 1 group M subtype B, UniProt P03367, Y787L); assay: Reverse Transcriptase (RT) Assay, Y188L mutant enzyme; type: biochemical, Human Immunodeficiency Virus (HIV-1); conditions: 1 µM compound
T3 construct: effective against the reverse transcriptase of many mutant viruses; made in house

MTT assay (cytotoxicity) = type: cell-based; conditions: human; H9 cells; five days incubation
Protocol: In order to roughly assess the cytotoxicity of the compounds provided by the invention, several such compounds were tested in the MTT Assay described below. Compounds having a relatively high CC50 are preferred.
The MTT [3-(4,5-dimethylthiazol-2-yl)-2,5 diphenyl tetrazolium bromide) assay is based on cleavage of tetrazolium bromide by metabolically active cells, resulting in a highly quantitative blue color. This assay has been previously described (1) but has been optimized for the purposes of the testing reported herein.
The H9 cell line (2), an established human lymphoma suspension cell line grown in RPMI 1640 supplemented with 10% fetal bovine serum, is used as the target cell line in the assay. Cells (100µL) are plated in microtest plate wells at a concentration of 10^5 cells per mL in the presence of varying concentrations of inhibitor. The cells are incubated at 37°C in a humidified CO2 incubator. Five days later, 20µL of MTT (5mg/mL in RPMI 1640, sonicated, 0.2 micron filtered, and stored at 4°C) is added to each well. After 4 hours additional incubation at 37°C, 60µL of Triton-X is added to each well and thoroughly mixed to aid the solubilization of the crystals. Absolute ethanol (5µL) is added to each well and the resulting mixture is incubated for 30 minutes at 60°C and immediately read on a plate reader (Dynatech) at a wavelength of 570nm.
Data from this assay are used to generate a nonlinear regression analysis which yields an CC50.

[2] = tested on: HTLV-IIIB strain of HIV-1; assay: Syncytia (human T-cell culture) assay; type: cell-based; conditions: Human immunodeficiency virus 1, IIIB, 96 h; c8166 cells; read four days after virus challenge
Protocol: In order to confirm that compounds which are active in the RT Assay also have the ability to inhibit HIV replication in a living system, compounds according to the invention were also tested in the human T-Cell Culture (Syncytia) Assay described below.
Formation of syncytia is a feature of in vitro cultures of CD4+ T-cells infected with HIV-1. In this assay, T-cells are treated with a putative replication inhibiting compound and then infected with HIV-1. After incubation, the culture is checked for the formation of syncytia. The absence or reduction in the number of syncytia is used as a measure of the test compound's ability to inhibit HIV replication.
The target cells, designated c8166, are a subclone of human lymphoma cells of T-cell origin and are established at an initial density of 5x10^4 per 100 ul in RPMI 1640 (+ 10% fetal bovine serum) culture medium in 96 well flat bottom plates. A selected amount of test compound, dissolved in DMSO, is included. After 24 hours, 50-100 TCID50's (the dose that results in induced effect in 50% of test cultures) of the HTLV-IIIB strain of HIV-1 (2) are inoculated into each culture. Control cultures receive compound or virus only. Four days after virus challenge, cultures are visually examined for the frequency and distribution of virus-induced giant cell syncytia. The percent inhibition by the test compound is determined by comparison with control values. Confirmation of the presence or absence of virus replication is accomplished by harvesting the cell free culture fluids from all experimental groups to determine the presence or absence of infectious progeny through the induction of syncytia formation in secondary human T-cell cultures after 3 days.

Structure (SMILES)	inhibition at 1 µM [1] [%]	inhibition at 1 µM (HIV-1 RT Y181C) [%]	Reverse Transciptase Assay % inhibition (1 µM) Y188L (HIV-1 RT Y188L) [%]	CC50 at 120 h (MTT assay (cytotoxicity)) [µM]	IC50 [2] [µM]	Reverse Transciptase Assay % inhibition (1 µM) WT [1] [%]	Reverse Transciptase Assay % inhibition (1 µM) Y181C (HIV-1 RT Y181C) [%]	Reverse Transciptase Assay % inhibition (1 µM) Y188L (HIV-1 RT Y188L; 1 µM) [%]
CCN1c2ncccc2C(=O)N(C)c2ccc(-c3cnn(CC)c3)nc21 [Example 2, 5,11-Dihydro-11-ethyl-2-(1-ethylpyrazol-4-yl)-5-methyl-6H-dipyrido[3,2-b:2',3'-e][1,4]-diazepin-6-one]	67	72	13	> 60	–	–	–	–
CCCN1c2nc(-c3cn[nH]c3)ccc2NC(=O)c2cccnc21 [Example 4, 5,11-Dihydro-11-n-propyl-2-(4-pyrazolyl)-6H-dipyrido[3,2-b:2',3'-e][1,4]diazepin-6-one]	60	54	29	> 60	–	–	–	–
CCCN1c2ncccc2C(=O)N(C)c2ccc(-c3cn[nH]c3)nc21 [Example 5, 5,11-Dihydro-5-methyl-11-n-propyl-2-(4-pyrazolyl)-6H-dipyrido[3,2-b:2',3'-e][1,4]diazepin 6-one]	90	90	63	> 60	–	–	–	–
CCN1c2ncccc2C(=O)N(C)c2ccc(-c3ccc[nH]3)nc21 [Example 13, 5,11-Dihydro-11-ethyl-5-methyl-2-(2-pyrrolyl)-6H-dipyrido[3,2-b:2',3'-e][1,4]diazepin-6-one]	88	80	17	–	0.16	–	–	–
CN1C(=O)c2cccnc2N(C)c2nc(-c3ccc[nH]3)ccc21 [Example 24, 5,11-Dihydro-5,11-dimethyl-2-(2-pyrrolyl)-6H-dipyrido[3,2-b:2',3'-e][1,4]diazepin-6-one]	39	50	18	–	–	–	–	–
CCN1c2ncccc2C(=O)N(C)c2ccc(-c3cn[nH]c3)nc21 [Example 26, 5,11-Dihydro-11-ethyl-5-methyl-2-(4-pyrazolyl)-6H-dipyrido[3,3-b:2',3'-e][1,4]diazepine-6-one]	–	–	–	–	–	64	33	20
CCN1c2ncccc2C(=O)N(C)c2ccc(-c3cc4cc(OC)ccc4[nH]3)nc21 [Example 27, 5,11-Dihydro-11-ethyl-2-(5-methoxyindol-2-yl)-5-methyl-6H-dipyrido[3,2-b:2',3'-e][1,4]-diazepin-6-one]	61	45	58	–	–	–	–	–
CCN1c2ncccc2C(=O)N(C)c2ccc(-c3c[nH]c4ccccc34)nc21 [Example 28, 5,11-Dihydro-11-ethyl-2-(indol-3-yl)-5-methyl-6H-dipyrido[3,2-b:2',3'-e][1,4]diazepin-6-one]	96	93	72	> 15	–	–	–	–
